Among the data in publication PMC3817140, “The Role of the Methyltransferase Domain of Bifunctional Restriction Enzyme RM.BpuSI in Cleavage Activity” (PLoS ONE, 2013) are Kd values, retold here.

As usually defined, the Kd is the equilibrium constant for the complex coming apart.

The assay addresses T1, RM.BpuSI (Bacillus pumilus, UniProt G1K3S1).
T1 construct: full-length (REase, helical connector, MTase domain, TRD); recombinant in E. coli ER3081, no tag told; treated with substrate DNA to remove SAM
T1 sequence (G1K3S1 1-878): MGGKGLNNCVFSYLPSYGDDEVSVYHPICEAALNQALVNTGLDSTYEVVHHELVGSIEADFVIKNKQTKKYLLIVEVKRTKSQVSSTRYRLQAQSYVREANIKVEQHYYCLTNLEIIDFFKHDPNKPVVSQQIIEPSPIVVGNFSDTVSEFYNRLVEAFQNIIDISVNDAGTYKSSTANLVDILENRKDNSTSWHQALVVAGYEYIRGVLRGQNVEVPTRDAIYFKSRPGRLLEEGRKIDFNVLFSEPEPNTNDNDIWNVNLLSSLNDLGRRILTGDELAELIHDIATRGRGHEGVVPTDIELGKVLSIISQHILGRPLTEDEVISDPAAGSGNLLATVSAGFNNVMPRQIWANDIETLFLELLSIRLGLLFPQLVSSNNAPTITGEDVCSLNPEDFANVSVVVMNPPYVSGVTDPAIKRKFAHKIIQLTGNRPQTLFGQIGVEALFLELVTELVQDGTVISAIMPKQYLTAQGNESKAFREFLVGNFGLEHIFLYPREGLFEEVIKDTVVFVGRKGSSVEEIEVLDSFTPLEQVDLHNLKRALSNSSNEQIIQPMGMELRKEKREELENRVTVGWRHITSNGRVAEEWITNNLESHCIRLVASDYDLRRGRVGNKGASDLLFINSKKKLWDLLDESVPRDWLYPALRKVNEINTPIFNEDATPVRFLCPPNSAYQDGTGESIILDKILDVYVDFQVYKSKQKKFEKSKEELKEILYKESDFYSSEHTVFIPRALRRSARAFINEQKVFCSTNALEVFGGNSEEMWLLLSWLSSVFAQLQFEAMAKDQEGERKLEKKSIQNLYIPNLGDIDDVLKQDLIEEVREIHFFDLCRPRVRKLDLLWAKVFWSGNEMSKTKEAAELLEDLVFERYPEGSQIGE
Put plainly: ANS fluorescence titration. The format is binding.

In turn, `C[S+](CC[C@H](N)C(=O)O)C[C@H]1O[C@@H](n2cnc3c(N)ncnc32)[C@H](O)[C@@H]1O` (some centres unmarked) [SAM] gave a Kd of 76.4 ± 18.2 µM.
Then `Nc1ncnc2c1ncn2[C@@H]1O[C@H](C[C@@H](N)CC[C@H](N)C(=O)O)[C@@H](O)[C@H]1O` [sinefungin], with 71.1 ± 14.2 µM.
